Results as given in ChEMBL document CHEMBL5033999, “Eriodictyol-Amplified 67-kDa Laminin Receptor Signaling Potentiates the Antiallergic Effect of O-Methylated Catechin” (J Nat Prod, 2021).
Calls of active or inactive are those of the source. No cut-off for these calls is given here.

Tests used:
RBL-2H3 [1] = assay: Inhibition of DNP-HAS-stimulated mast cell degranulation in rat RBL-2H3 cells assessed as reduction in beta-hexosaminidase release at 0.01 to 1 uM; format: functional, cell-based; settings: dose 0.01-1 µM
RBL-2H3 [2] = assay: Inhibition of DNP-HAS-stimulated mast cell degranulation in rat RBL-2H3 cells assessed as reduction in beta-hexosaminidase release at 0.1 uM; format: functional, cell-based
RBL-2H3 [3] = assay: Inhibition of DNP-HAS-stimulated mast cell degranulation in rat RBL-2H3 cells assessed as induction of ASM activation at 0.1 uM; format: functional, cell-based
RBL-2H3 [4] = assay: Inhibition of mast cell degranulation in rat RBL-2H3 cells assessed as induction of ASM activation at 1 to 25 uM incubated for 3 hrs measured by TLC analyses; format: functional, cell-based; settings: dose 1-25 µM
RBL-2H3 [5] = assay: Inhibition of DNP-HAS-stimulated mast cell degranulation in rat RBL-2H3 cells assessed as reduction in beta-hexosaminidase release at 1 to 25 uM incubated for 3 hrs followed by DNP-HAS stimulation for 1 hr; format: functional, cell-based; settings: dose 1-25 µM
RBL-2H3 [6] = assay: Inhibition of mast cell degranulation in rat RBL-2H3 cells assessed as induction of ASM activation pre-treated with anti-67LR antibody for 3 hrs followed by compound treatment at 25 uM for 3 hrs; format: functional, cell-based
RBL-2H3 [7] = assay: Inhibition of mast cell degranulation in rat RBL-2H3 cells assessed as reduction in beta-hexosaminidase release pre-treated with 5 uM ASM-specific inhibitor desipramine for 3 hrs followed by compound treatment at 25 uM for 3 hrs; format: functional, cell-based
RBL-2H3 [8] = assay: Inhibition of DNP-HAS-stimulated mast cell degranulation in rat RBL-2H3 cells assessed as reduction in beta-hexosaminidase release pre-treated with 5 uM sGC inhibitor NS2028 for 1 hr followed by compound treatment at 25 uM for 3 hrs; format: functional, cell-based
RBL-2H3 [9] = assay: Inhibition of DNP-HAS-stimulated mast cell degranulation in rat RBL-2H3 cells assessed as reduction in beta-hexosaminidase release at 0.5 uM; format: functional, cell-based
RBL-2H3 [10] = assay: Inhibition of DNP-HAS-stimulated mast cell degranulation in rat RBL-2H3 cells assessed as reduction in beta-hexosaminidase release at 0.5 uM in presence of 0.1 uM eriodictyol; format: functional, cell-based
RBL-2H3 [11] = assay: Inhibition of DNP-HAS-stimulated mast cell degranulation in rat RBL-2H3 cells assessed as induction of ASM activation at 0.5 uM; format: functional, cell-based
RBL-2H3 [12] = assay: Inhibition of DNP-HAS-stimulated mast cell degranulation in rat RBL-2H3 cells assessed as induction of ASM activation at 0.5 uM in presence of 0.1 uM eriodictyol; format: functional, cell-based
Mus musculus = assay: Inhibition of IgE/Ag-mediated immediate hypersensitivity reaction in BALB/c mouse assessed as change in the level of skin extravasation at 0 to 4 mg/kg, po administered 1 hr prior to Ag challenge; format: functional, organism-based; settings: dose 0-4 mg/kg
RBL-2H3 [13] = assay: Inhibition of DNP-HAS-stimulated mast cell degranulation in rat RBL-2H3 cells assessed as reduction in beta-hexosaminidase release at 1 uM incubated for 3 hrs; format: functional, cell-based

Q: Which inhibition (RBL-2H3 [1]) does the source give for `O=C1C[C@@H](c2ccc(O)c(O)c2)Oc2cc(O)cc(O)c21` here?
A: inactive

Q: And the inhibition (RBL-2H3 [2])?
A: inactive

Q: And the inhibition (RBL-2H3 [3])?
A: inactive

Q: `COc1cc(C(=O)O[C@@H]2Cc3c(O)cc(O)cc3O[C@@H]2c2cc(O)c(O)c(O)c2)cc(O)c1O` was tested. Which inhibition (RBL-2H3 [4]) did it give?
A: Active

Q: What about the inhibition (RBL-2H3 [5]) of the same compound?
A: Active

Q: What about the inhibition (RBL-2H3 [6]) of the same compound?
A: inactive

Q: What about the inhibition (RBL-2H3 [7]) of the same compound?
A: inactive

Q: And the inhibition (RBL-2H3 [8])?
A: inactive

Q: What about the inhibition (RBL-2H3 [9]) of the same compound?
A: inactive

Q: And the inhibition (RBL-2H3 [10])?
A: Active

Q: And the inhibition (RBL-2H3 [11])?
A: inactive

Q: And the inhibition (RBL-2H3 [12])?
A: Active

Q: How did the inhibition (Mus musculus) turn out when `O=C1C[C@@H](c2ccc(O)c(O)c2)Oc2cc(O[C@@H]3O[C@H](CO)[C@@H](O)[C@H](O)[C@H]3O)cc(O)c21` was run?
A: inactive

Q: With `Nc1nc(-c2nn(Cc3ccccc3F)c3ncccc23)ncc1C1CC1` as the compound, how does the inhibition (RBL-2H3 [13]) read?
A: Active
